This note sets out measurements from patent US20260317344A1, “EGFR INHIBITORS FOR TREATING DISEASE” (BLOSSOMHILL THERAPEUTICS, INC., priority 2023, published 2026).

pIC50: −log10 of the molar value.

Experiment [1] has as its target EGFR (L858R) (Homo sapiens, UniProt P00533, L858R). Briefly: HotSpot radiometric kinase assay, inhibition of EGFR L858R mutant. It counts as biochemical. To be noted: 33P ATP, room temperature, 120 m. As for the experimental part:
(§1) Biochemical Assays for inhibition of wild-type and mutant EGFRs
(§2) Briefly, specific kinase/substrate pairs along with required cofactors were prepared in reaction buffer; 20 mM HEPES pH 7.5, 10 mM […], 1 mM EGTA, 0.02% Brij35, 0.02 mg/ml BSA, 0.1 mM Na3VO4, 2 mM DTT, 1% DMSO. Compounds were delivered into the reaction, followed ~20 minutes later by addition of a mixture of ATP (Sigma, St. Louis MO) and ^33P ATP (Perkin Elmer, Waltham MA) to a final concentration of […]. Reactions were carried out at room temperature for 120 m, followed by spotting of the reactions onto P81 ion exchange filter paper (Whatman Inc., Piscataway, NJ). Unbound phosphate was removed by extensive washing of filters in 0.75% phosphoric acid. […] IC50 values and curve fits were obtained using Prism (GraphPad Software).

Experiment [2] deals with EGFR (L858R/T790M) (Homo sapiens, UniProt P00533, L858R/T790M). The experiment is described as follows: HotSpot radiometric kinase assay, inhibition of EGFR L858R/T790M mutant. Particulars: 33P ATP, room temperature, 120 m. In kind it is biochemical. As for the experimental part:
as §1, §2

Experiment [3] addresses EGFR (L858R/T790M/C797S) (Homo sapiens, UniProt P00533, C797S/L858R/T790M). The experiment is described as follows: HotSpot radiometric kinase assay, inhibition of EGFR L858R/T790M/C797S mutant. It counts as biochemical. To be noted: 33P ATP, room temperature, 120 m. The method, boiled down: (§3)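 Radiometric filter-binding format: ATP plus 33P-ATP ([…]) was added about 20 min after compound to kinase and substrate in HEPES pH 7.5 buffer with Mg2+, EGTA, Brij35, BSA, vanadate, DTT and 1% DMSO. After 120 min at room temperature, reactions were spotted on P81 paper and washed in phosphoric acid; IC50 values fitted.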

Experiment [4] deals with EGFR (D746-750) (Homo sapiens, UniProt P00533, DEL746-750). Briefly: HotSpot radiometric kinase assay, inhibition of EGFR 746-750 mutant. In kind it is biochemical. Particulars: 33P ATP, room temperature, 120 m. Summed up:
as §3

The target of experiment [5] is EGFR (D746-750/C797S) (Homo sapiens, UniProt P00533, C797S/DEL746-750). Briefly: HotSpot radiometric kinase assay, inhibition of EGFR 746-750/C797S mutant. In kind it is biochemical. To be noted: 33P ATP, room temperature, 120 m. The method, boiled down: as §3
Experiment [6] has as its target EGFR (D770_N771insNPG) (Homo sapiens, UniProt P00533, INS770NPG). The experiment is described as follows: HotSpot radiometric kinase assay, inhibition of EGFR (D770_N771insNPG) mutant. In kind it is biochemical. Particulars: 33P ATP, room temperature, 120 m. Summed up:
as §3

Experiment [7] has as its target EGFR WT (Homo sapiens, UniProt P00533). The experiment is described as follows: HotSpot radiometric kinase assay, inhibition of EGFR WT. It counts as biochemical. Particulars: 33P ATP, room temperature, 120 m. As for the experimental part:
as §1, §2

In experiment [8] the target is T1, pEGFR, PC-9 cells (d746-750 EGFR) (Homo sapiens, UniProt P00533, DEL746-750).
T1 construct: pEGFR (Tyr1068) TR-FRET
Briefly: Cellular EGFR phosphorylation assay (LANCE Ultra TR-FRET) in PC-9 cells. In kind it is cell-based. To be noted: 4 hours at 37° C., read-out: PC-9 pEGFR IC50. The method, boiled down: (§4)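 4 h compound treatment at 37 °C, 9-point 3-fold titration. EGF (40 ng/mL, final 10 min) in A431 only. Tyr1068 phosphorylation measured by TR-FRET and IC50 fitted.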
Background: TR-FRET usually uses a lanthanide donor and a delayed reading to cut background.

Experiment [9] addresses T2, pEGFR, NCI-H1975 cells (L858R/T790M EGFR) (Homo sapiens, UniProt P00533, L858R/T790M).
T2 construct: pEGFR (Tyr1068) TR-FRET
The experiment is described as follows: Cellular EGFR phosphorylation assay (LANCE Ultra TR-FRET) in NCI-H1975 cells. It counts as cell-based. To be noted: 4 hours at 37° C., read-out: H1975 pEGFR IC50. Summed up:
as §4

The target of experiment [10] is T3, pEGFR, A431 cells (wildtype EGFR) (Homo sapiens, UniProt P00533).
T3 construct: pEGFR (Tyr1068) TR-FRET
The experiment is described as follows: Cellular EGFR phosphorylation assay (LANCE Ultra TR-FRET) in A431 cells. Particulars: 4 hours at 37° C., 40 ng/mL EGF for the final 10 minutes, read-out: A431 pEGFR IC50. It counts as cell-based. Summed up:
as §4

For experiment [11], the system named is PC-9 cells. The experiment is described as follows: 5-Day CellTiter Glo (CTG) cell proliferation assay, PC-9. It counts as cell-based. Particulars: Homo sapiens; PC-9 cells (d746-750 EGFR), 5-day CTG proliferation, 120 hours; read-out: PC-9 IC50. The method, boiled down:
(§5)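 Proliferation of EGFR-driven NSCLC cells was scored as CellTiter-Glo 2.0 luminescence after a 5-day (120 h) incubation with compounds in 9 doses. IC50 values came from the dose-response curves.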
For orientation: ATP-based viability assays read luminescence as a measure of living cells.

The subject of experiment [12] is NCI-H1975 cells. Briefly: 5-Day CellTiter Glo (CTG) cell proliferation assay, NCI-H1975. It counts as cell-based. To be noted: Homo sapiens; NCI-H1975 cells (L858R/T790M EGFR), 5-day CTG proliferation, 120 hours; read-out: H1975 IC50. Summed up:
as §5

For experiment [13], the system named is HCC827 cells. The experiment is described as follows: 5-Day CellTiter Glo (CTG) cell proliferation assay, HCC827. It counts as cell-based. Particulars: Homo sapiens; HCC827 cells (d746-750 EGFR), 5-day CTG proliferation, 120 hours; read-out: HCC827 IC50. Summed up:
as §5

Experiment [14] has as its system BaF3 cells with engineered EGFR L858R/T790M/C797S. Briefly: 3-Day CellTiter Glo (CTG) cell proliferation assay, BaF3 EGFR L858R/T790M/C797S. It counts as cell-based. Particulars: Mus musculus, 3-day CTG proliferation, 72 hours. Summed up: (§6)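 Viability after 72 h compound exposure (9 concentrations, 37° C, 5% CO2) was measured as ATP luminescence with CellTiter-Glo 2.0 in EGFR-mutant-engineered BaF3 cells plated at one thousand cells per well. IC50 values obtained by curve fitting.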

Experiment [15] has as its system BaF3 cells with engineered EGFR L858R/C797S. Briefly: 3-Day CellTiter Glo (CTG) cell proliferation assay, BaF3 EGFR L858R/C797S. It counts as cell-based. Particulars: Mus musculus, 3-day CTG proliferation, 72 hours. The method, boiled down:
as §6

Experiment [16] deals with BaF3 cells with engineered EGFR d746-750/T790M. The experiment is described as follows: 3-Day CellTiter Glo (CTG) cell proliferation assay, BaF3 EGFR d746-750/T790M. It counts as cell-based. To be noted: Mus musculus; BaF3 EGFR d746-750/T790M cells, 3-day CTG proliferation, 72 hours. The method, boiled down: as §6

EGFR (D770_N771insNPG), sequence (P00533 with tags, fused parts or gaps INS770NPG limits assumed): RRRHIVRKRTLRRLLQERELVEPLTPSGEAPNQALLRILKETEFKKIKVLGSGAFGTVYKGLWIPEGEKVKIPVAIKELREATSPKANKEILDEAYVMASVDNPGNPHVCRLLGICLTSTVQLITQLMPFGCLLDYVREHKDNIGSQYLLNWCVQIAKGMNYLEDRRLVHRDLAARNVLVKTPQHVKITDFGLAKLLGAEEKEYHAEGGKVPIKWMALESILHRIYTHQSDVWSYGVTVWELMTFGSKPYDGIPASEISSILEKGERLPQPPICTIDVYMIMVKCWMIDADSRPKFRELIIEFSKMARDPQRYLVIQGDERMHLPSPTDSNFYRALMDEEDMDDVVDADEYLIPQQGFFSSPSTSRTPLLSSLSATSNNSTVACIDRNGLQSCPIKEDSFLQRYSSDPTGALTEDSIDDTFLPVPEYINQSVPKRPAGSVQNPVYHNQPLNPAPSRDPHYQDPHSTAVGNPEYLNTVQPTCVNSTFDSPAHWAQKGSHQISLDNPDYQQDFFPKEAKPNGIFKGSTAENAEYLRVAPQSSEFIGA
EGFR (D746-750), sequence (P00533 with tags, fused parts or gaps DEL746-750): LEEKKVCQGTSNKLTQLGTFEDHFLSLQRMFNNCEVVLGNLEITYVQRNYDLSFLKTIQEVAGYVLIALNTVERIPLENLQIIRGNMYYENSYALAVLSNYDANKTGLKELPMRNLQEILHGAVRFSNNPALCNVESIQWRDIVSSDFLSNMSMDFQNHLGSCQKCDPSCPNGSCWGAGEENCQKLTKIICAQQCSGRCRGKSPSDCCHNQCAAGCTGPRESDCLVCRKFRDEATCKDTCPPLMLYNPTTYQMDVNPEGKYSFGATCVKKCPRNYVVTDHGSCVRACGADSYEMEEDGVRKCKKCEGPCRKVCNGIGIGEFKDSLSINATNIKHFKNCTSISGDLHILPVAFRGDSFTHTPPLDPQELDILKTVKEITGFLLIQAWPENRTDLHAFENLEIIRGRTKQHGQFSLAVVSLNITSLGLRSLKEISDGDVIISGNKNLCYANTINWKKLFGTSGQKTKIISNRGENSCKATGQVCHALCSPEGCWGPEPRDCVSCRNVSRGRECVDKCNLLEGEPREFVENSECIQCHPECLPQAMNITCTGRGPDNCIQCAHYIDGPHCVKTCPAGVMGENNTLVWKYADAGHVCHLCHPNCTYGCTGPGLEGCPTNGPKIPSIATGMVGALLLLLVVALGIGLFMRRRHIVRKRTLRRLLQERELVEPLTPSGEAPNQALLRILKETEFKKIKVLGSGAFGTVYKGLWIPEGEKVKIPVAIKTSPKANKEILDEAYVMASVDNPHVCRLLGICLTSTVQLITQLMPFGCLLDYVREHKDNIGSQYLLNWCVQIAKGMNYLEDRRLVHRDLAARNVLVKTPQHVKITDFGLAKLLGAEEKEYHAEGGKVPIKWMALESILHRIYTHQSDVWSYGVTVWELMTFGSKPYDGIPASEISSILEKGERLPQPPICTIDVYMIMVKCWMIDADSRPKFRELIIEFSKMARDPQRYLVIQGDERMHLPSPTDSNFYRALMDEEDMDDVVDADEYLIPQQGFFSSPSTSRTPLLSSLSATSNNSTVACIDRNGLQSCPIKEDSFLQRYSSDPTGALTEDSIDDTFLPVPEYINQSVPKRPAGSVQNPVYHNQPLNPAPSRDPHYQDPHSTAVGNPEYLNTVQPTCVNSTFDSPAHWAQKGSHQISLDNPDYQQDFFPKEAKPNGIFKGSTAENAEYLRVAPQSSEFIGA
T1 sequence (P00533 with tags, fused parts or gaps DEL746-750): as above
T2 sequence (P00533 25-1210 T790M/L858R): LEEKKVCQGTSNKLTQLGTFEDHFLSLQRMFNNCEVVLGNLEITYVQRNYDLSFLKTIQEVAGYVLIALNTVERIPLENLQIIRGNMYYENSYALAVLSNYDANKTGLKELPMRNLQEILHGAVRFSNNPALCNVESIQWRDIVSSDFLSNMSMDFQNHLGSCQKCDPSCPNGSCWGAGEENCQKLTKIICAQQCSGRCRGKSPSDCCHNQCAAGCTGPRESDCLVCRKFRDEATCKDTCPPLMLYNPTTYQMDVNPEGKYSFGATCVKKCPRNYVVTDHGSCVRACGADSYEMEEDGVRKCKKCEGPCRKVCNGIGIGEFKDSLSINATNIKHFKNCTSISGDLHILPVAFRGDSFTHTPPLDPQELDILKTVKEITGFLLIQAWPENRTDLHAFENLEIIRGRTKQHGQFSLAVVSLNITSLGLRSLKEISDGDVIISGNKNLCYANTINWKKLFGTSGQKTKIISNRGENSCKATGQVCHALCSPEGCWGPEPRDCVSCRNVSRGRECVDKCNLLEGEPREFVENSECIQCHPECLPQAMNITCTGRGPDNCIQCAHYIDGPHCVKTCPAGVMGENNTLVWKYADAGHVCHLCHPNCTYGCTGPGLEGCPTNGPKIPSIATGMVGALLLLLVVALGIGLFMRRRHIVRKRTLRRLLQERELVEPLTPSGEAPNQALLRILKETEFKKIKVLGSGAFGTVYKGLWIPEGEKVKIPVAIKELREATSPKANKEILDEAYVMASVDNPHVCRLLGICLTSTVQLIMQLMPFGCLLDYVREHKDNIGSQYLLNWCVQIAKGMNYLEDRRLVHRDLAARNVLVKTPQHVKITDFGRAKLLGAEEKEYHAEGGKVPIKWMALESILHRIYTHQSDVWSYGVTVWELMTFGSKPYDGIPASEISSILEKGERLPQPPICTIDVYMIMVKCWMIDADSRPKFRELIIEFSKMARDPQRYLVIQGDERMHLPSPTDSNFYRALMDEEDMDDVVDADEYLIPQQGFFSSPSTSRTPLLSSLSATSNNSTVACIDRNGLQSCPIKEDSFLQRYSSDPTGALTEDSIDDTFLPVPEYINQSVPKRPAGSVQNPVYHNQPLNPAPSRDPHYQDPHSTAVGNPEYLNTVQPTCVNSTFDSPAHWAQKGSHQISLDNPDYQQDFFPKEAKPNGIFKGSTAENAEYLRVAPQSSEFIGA

As for `CCOc1nn(CCO)c2c1/C=C/c1n[nH]c3cnc(cc13)-c1c(C)nn(C)c1O[C@H](C)CN(C(C)C)C2` [Ex. 1, 2-[(10R,17E)-16-ethoxy-6,8,10-trimethyl-12-(propan-2-yl)-2,8,10,11,12,13-hexahydro-14H-5,3-(azenometheno)tripyrazolo[3,4-f:3′,4′-j:4″,3″-n][1,4]oxazacyclopentadecin-14-yl]ethan-1-ol], the pIC50 (usually the IC50 on a negative log10 scale, so that one unit is a factor of ten) is 8.95 in [1]; 8.74 in experiment [2]; 9.00 in [3]; 8.91 in experiment [4]; 8.81 in experiment [5]; 8.82 in experiment [6]. The pIC50 is 8.95 in experiment [7]; 8.51 in experiment [8]; 8.52 in experiment [9]; 7.72 in experiment [10]; 8.33 in experiment [11]; 7.54 in experiment [12]. For the same compound, the pIC50 is 9.17 in [13], 8.80 in experiment [14], 9.39 in experiment [15] and 8.77 in experiment [16].
For the compound `CC(C)Oc1nn(CCO)c2c1/C=C/c1n[nH]c3cnc(cc13)-c1cnn(C)c1O[C@H](C)CN(C(C)C)C2` [Ex. 3, 2-[(10R,17E)-8,10-dimethyl-12-(propan-2-yl)-16-[(propan-2-yl)oxy]-2,8,10,11,12,13-hexahydro-14H-5,3-(azenometheno)tripyrazolo[3,4-f:3′,4′-j:4″,3″-n][1,4]oxazacyclopentadecin-14-yl]ethan-1-ol], the pIC50 in experiment [1] was 8.82; in [2], 8.88; in [3], 9.07; in experiment [4], 8.90; in experiment [5], 8.81; in [6] it was 8.42. Further, the pIC50 in [7] is 8.74; in experiment [8] it was 7.83; in [9], 8.19; in experiment [10], 7.44; in experiment [11] it was 7.26; in experiment [12] it was 7.53. Moreover, the pIC50 in [13] was 8.35; in [14], 8.74; in experiment [15], 8.89; in experiment [16] it was 8.35.
`CCOc1nn(CCO)c2c1/C=C/c1n[nH]c3cnc(cc13)-c1c(C)nn(C)c1O[C@@H](C)CN(C(C)C)C2` [Ex. 8, 2-[(10S,17E)-16-ethoxy-6,8,10-trimethyl-12-(propan-2-yl)-2,8,10,11,12,13-hexahydro-14H-5,3-(azenometheno)tripyrazolo[3,4-f:3′,4′-j:4″,3″-n][1,4]oxazacyclopentadecin-14-yl]ethan-1-ol]: the pIC50 was 9.46 in [1]; 9.15 in [2]; 9.32 in experiment [3]; 9.26 in [4]; 9.43 in experiment [5]; 9.49 in [6]. The negative logarithm of the IC50 (pIC50) is 9.82 in experiment [7]; 8.98 in experiment [8]; 8.81 in [9]; 8.09 in [10]; 9.44 in experiment [11]; 9.04 in experiment [12]. Further, the pIC50 was 9.96 in [13], 9.09 in experiment [14], 10.00 in experiment [15] and 9.36 in experiment [16].
Regarding `CCN1Cc2c(c(C)nn2CCO)/C=C/c2n[nH]c3cnc(cc23)-c2c(C)nn(C)c2O[C@@H](C)C1` [Ex. 13, 2-[(10S,17E)-12-ethyl-6,8,10,16-tetramethyl-2,8,10,11,12,13-hexahydro-14H-5,3-(azenometheno)tripyrazolo[3,4-f:3′,4′-j:4″,3″-n][1,4]oxazacyclopentadecin-14-yl]ethan-1-ol], the pIC50 in [1] is 9.80; in experiment [2], 9.70; in [3], 9.72; in experiment [4], 9.39; in experiment [5], 9.80; in [6], 10.15. Further, the pIC50 in experiment [7] is 10.30; in experiment [8], 9.00; in [9], 8.68; in experiment [10], 7.92; in experiment [11], 9.42; in experiment [12], 8.37. In addition, the pIC50 was 9.59 in experiment [13], 8.98 in [14], 10.00 in [15] and 8.84 in experiment [16].
For `CCN1Cc2c(c(C)nn2CCO)/C=C/c2n[nH]c3cnc(cc23)-c2c(C)nn(C)c2O[C@H](C)C1` [Ex. 14, 2-[(10R,17E)-12-ethyl-6,8,10,16-tetramethyl-2,8,10,11,12,13-hexahydro-14H-5,3-(azenometheno)tripyrazolo[3,4-f:3′,4′-j:4″,3″-n][1,4]oxazacyclopentadecin-14-yl]ethan-1-ol], the pIC50 in experiment [1] is 9.60; in experiment [2] it was 9.64; in experiment [3], 9.66; in experiment [4] it was 9.33; in [5], 9.70; in experiment [6], 9.82. For the same compound, the pIC50 in experiment [7] is 10.10; in [8], 7.93; in experiment [9], 8.12; in experiment [10], 7.35; in experiment [11] it was 7.26; in [12], 6.96. Also, the pIC50 in experiment [13] is 8.54; in experiment [14], 8.28; in [15], 8.91; in experiment [16] it was 7.65.
Turning to `CCOc1nn(CCO)c2c1/C=C/c1n[nH]c3cnc(cc13)-c1c(C)nn(C)c1O[C@@H](C)CN(CC)C2` [Ex. 15, 2-[(10S,17E)-16-ethoxy-12-ethyl-6,8,10-trimethyl-2,8,10,11,12,13-hexahydro-14H-5,3-(azenometheno)tripyrazolo[3,4-f:3′,4′-j:4″,3″-n][1,4]oxazacyclopentadecin-14-yl]ethan-1-ol], the pIC50 is 9.57 in experiment [1]; 9.43 in experiment [2]; 9.43 in [3]; 9.22 in experiment [4]; 9.62 in experiment [5]; 9.66 in [6]. In addition, the pIC50 is 9.92 in experiment [7]; 8.98 in experiment [8]; 8.73 in [9]; 8.13 in experiment [10]; 9.48 in experiment [11]; 9.12 in experiment [12]. Also, the pIC50 in experiment [13] is 9.74; in [14], 9.10; in experiment [15], 10.22; in [16] it was 9.24.
